Ten molecules from patent US4182897A, “Amino- or guanidino-phenylpropionic acid derivatives” (Torii & Co., Ltd., priority 1977, dated 1980) can be followed below.

Where a name gives a salt, the structure may show the parent alone. Read-outs that look alike come from different tables or passages of the source.

Assay type in all cases: biochemical
One assay addresses T1, Trypsin (Bos taurus, UniProt P00760).
T1 sequence (P00760 24-246): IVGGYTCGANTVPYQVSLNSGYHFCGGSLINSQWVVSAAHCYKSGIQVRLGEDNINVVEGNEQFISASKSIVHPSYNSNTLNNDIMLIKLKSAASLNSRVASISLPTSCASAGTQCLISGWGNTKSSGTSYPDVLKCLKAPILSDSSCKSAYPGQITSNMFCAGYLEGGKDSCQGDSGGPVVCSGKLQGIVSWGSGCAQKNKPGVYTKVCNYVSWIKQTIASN
Put plainly: Inhibitory effect on ester-hydrolyzing activity of trypsin (TAMe substrate). The settings on record: for inhibition at 1000 µM: read-out: percent inhibition at 10^-3 M (trypsin); for IC50: tosylarginine methyl ester hydrolysis, read-out: ID50 (trypsin). The protocol: (A) Determination of Enzyme-inhibitory Activity: The enzyme-inhibitory activities in vitro of the compounds of this invention were measured by the following procedure according to the method of M. Muramatsu et al. [[…]. Makino, Y. Hayashi and S. Fujii: J. […] Then, 10 μmoles of the substrate, TAMe (tosylarginine methyl ester), was added, and incubation was performed at 37° C. for 30 minutes. After the incubation, 1.5 ml of 2 M alkaline hydroxylamine was added and thoroughly mixed, and allowed to stand at room temperature for 15 minutes.

A further assay addresses Human Plasmin (Homo sapiens, UniProt P00747). Put plainly: Inhibitory effect on ester-hydrolyzing activity of human plasmin (TAMe substrate). The settings on record: for inhibition at 1000 µM: read-out: percent inhibition at 10^-3 M (plasmin); for inhibitory action on plasmin: in vitro. The protocol:
(A) Determination of Enzyme-inhibitory Activity: The enzyme-inhibitory activities in vitro of the compounds of this invention were measured by the following procedure according to the method of M. Muramatsu et al. [[…]. Makino, Y. Hayashi and S. Fujii: J. […] (2) Inhibitory Effect on Ester-hydrolyzing Activity of Human Plasmin It was measured by using 0.1 ml of plasmin (generated by activation of plasminogen with streptokinase) and TAMe as substrate following the method described in (1).

For another assay, the target named is T2, Human Cl Esterase (Homo sapiens, UniProt P09871).
T2 sequence (P09871 438-688 limits assumed): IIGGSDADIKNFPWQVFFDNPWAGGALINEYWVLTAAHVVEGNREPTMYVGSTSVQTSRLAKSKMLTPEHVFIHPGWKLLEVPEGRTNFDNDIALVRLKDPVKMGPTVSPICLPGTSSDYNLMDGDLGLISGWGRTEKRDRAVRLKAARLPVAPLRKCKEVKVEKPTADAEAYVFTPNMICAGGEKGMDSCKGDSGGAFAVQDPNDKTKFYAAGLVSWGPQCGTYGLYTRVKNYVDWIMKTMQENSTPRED
T2 sequence (P09871 16-437 partner limits assumed): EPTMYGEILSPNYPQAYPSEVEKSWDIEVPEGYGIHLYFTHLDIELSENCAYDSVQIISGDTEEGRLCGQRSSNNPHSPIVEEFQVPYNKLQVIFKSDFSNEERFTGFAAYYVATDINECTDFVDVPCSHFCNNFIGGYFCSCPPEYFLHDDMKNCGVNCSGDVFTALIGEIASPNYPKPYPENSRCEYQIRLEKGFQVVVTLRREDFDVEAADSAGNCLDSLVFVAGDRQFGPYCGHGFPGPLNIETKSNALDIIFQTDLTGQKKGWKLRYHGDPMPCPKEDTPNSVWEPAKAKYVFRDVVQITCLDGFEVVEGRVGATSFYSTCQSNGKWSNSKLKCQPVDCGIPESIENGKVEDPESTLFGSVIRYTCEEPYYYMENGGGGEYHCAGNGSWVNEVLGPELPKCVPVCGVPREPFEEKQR
Put plainly: Inhibitory effect on ester-hydrolyzing activity of human Cl esterase (ATEe substrate). The settings on record: for IC50: acetyltyrosine ethyl ester hydrolysis, read-out: ID50 (Cl esterase); for inhibition at 1000 µM: read-out: percent inhibition at 10^-3 M (Cl esterase).

The target of a further assay is Human Plasma Kallikrein (Homo sapiens, UniProt P03952). Briefly: Inhibitory effect on ester-hydrolyzing activity of human plasma kallikrein (TAMe substrate). The settings on record: for inhibition at 1000 µM: read-out: percent inhibition at 10^-3 M (kallikrein); for inhibitory action on kallikrein: in vitro. The protocol: (A) Determination of Enzyme-inhibitory Activity: The enzyme-inhibitory activities in vitro of the compounds of this invention were measured by the following procedure according to the method of M. Muramatsu et al. [[…]. Makino, Y. Hayashi and S. Fujii: J.
Human Plasma Kallikrein, sequence (P03952 391-638 limits assumed): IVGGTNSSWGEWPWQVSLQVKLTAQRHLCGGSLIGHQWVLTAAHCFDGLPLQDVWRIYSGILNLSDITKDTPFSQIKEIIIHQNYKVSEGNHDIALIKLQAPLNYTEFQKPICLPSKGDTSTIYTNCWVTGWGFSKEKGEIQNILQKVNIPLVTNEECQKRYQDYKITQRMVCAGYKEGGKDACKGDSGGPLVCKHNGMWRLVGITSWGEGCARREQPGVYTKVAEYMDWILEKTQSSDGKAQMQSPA
Human Plasma Kallikrein, sequence (P03952 20-390 partner limits assumed): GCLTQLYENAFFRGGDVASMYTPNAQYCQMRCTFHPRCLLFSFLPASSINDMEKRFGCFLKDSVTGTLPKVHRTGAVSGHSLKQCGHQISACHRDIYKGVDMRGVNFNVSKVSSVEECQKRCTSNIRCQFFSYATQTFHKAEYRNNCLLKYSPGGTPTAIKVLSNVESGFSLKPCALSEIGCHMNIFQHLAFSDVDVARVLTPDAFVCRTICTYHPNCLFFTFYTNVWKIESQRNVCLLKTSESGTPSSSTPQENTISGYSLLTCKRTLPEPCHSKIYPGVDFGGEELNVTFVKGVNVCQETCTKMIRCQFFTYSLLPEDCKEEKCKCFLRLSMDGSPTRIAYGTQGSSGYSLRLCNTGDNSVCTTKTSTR

Another assay deals with Bovine Thrombin (Bos taurus, UniProt P00735). Put plainly: Inhibitory effect on ester-hydrolyzing activity of bovine thrombin (TAMe substrate). The settings on record: for inhibition at 1000 µM: read-out: percent inhibition at 10^-3 M (thrombin); for inhibitory action on thrombin: in vitro. The protocol:
(4) Inhibitory Effect on Ester-Hydrolyzing Activity of Bovine Thrombin
It was measured by using 0.4 ml of bovine thrombin […], 0.02 M sodium phosphate buffer solution (pH 7.4) and TAMe as substrate following the method described in (1).

Human Plasmin, sequence (P00747 581-810 limits assumed): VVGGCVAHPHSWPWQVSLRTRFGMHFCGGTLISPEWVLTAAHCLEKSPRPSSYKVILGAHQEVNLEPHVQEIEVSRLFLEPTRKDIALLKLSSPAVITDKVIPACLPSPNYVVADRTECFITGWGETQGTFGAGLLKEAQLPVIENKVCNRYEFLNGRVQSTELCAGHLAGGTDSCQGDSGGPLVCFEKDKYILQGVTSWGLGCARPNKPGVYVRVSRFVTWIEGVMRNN
Human Plasmin, sequence (P00747 97-580 partner limits assumed): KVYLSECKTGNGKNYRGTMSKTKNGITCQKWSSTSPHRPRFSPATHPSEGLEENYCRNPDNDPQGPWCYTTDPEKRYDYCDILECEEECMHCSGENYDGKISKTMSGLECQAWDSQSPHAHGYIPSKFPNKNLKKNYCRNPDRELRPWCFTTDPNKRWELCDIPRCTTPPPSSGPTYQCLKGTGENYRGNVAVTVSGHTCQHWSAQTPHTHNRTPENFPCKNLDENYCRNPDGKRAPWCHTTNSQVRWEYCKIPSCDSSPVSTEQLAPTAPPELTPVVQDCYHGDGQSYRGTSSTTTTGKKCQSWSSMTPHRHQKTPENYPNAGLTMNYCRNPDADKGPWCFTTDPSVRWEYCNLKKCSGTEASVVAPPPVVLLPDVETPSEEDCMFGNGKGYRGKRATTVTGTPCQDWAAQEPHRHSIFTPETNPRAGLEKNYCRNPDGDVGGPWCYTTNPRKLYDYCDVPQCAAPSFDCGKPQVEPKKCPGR
Method for Human Cl Esterase: It was measured by using 0.1 ml of Cl esterase, 0.1 ml of 0.02 M sodium phosphate buffer solution (pH 7.4) and 10 μmoles of ATEe (acetyltyrosine ethyl ester) as substrate following the method described in (1).

For `Cc1ccc(OC(=O)C(C)Cc2ccc(NC(=N)N)cc2)cc1` (stereo not drawn) [Compound No. 45, p-Methylphenyl α-methyl-β-(p-guanidinophenyl)-propionate hydrochloride], the inhibition at 1000 µM at Trypsin was 21.4%; on Human Plasmin it was less than 10%; on Human Plasma Kallikrein, less than 10%; at Bovine Thrombin, less than 10%. In addition, the IC50 on Human Cl Esterase (in vitro) amounted to 780 µM.

`CCOC(=O)c1ccc(OC(=O)CCc2ccc(NC(=N)N)cc2)cc1.Cl` [Compound No. 47, p-Ethoxycarbonylphenyl β-(p-guanidinophenyl)-propionate hydrochloride]: the IC50 at Trypsin (in vitro) is 78 µM. Moreover, at Human Plasmin, the “inhibitory action on plasmin” value was “no inhibitory action”. For the same molecule, the inhibition at 1000 µM at Human Plasmin was less than 10%; at Human Cl Esterase, less than 10%; at Human Plasma Kallikrein, 36%; on Bovine Thrombin, 12.3%. Also, the “inhibitory action on Cl esterase” value on Human Cl Esterase (in vitro) is reported as “no inhibitory action”. Further, on Human Plasma Kallikrein, the “inhibitory action on kallikrein” value is reported as “no inhibitory action”. Besides, the “inhibitory action on thrombin” value against Bovine Thrombin is listed as “no inhibitory action”.

With `CCC(Cc1cccc(NC(=N)N)c1)C(=O)Oc1ccccc1` (stereo not drawn) [compound 65, phenyl α-ethyl-β-(m-guanidinophenyl)-propionate], the inhibition at 1000 µM at Trypsin was 35%; on Human Plasmin it was less than 10%; at Human Plasma Kallikrein, 15.6%; at Bovine Thrombin it was 16.8%. The IC50 at Human Cl Esterase (in vitro) is 70 µM.

Turning to `CCC(Cc1cccc(N)c1)C(=O)Oc1ccc(OC)cc1` (stereo not drawn) [Compound No. 4, p-Methoxyphenyl α-ethyl-β-(m-aminophenyl)-propionate hydrochloride], at Trypsin (in vitro, 30 min), the IC50 was 400 µM. In addition, the inhibition at 1000 µM on Human Plasmin was less than 10%; at Human Cl Esterase, 14.8%; at Human Plasma Kallikrein, less than 10%; on Bovine Thrombin, less than 10%.

In the case of `CC(Cc1ccc(NC(=N)N)cc1)C(=O)Oc1ccc(Cl)cc1` (stereo not drawn) [compound 52, p-chlorophenyl α-methyl-β-(p-guanidinophenyl)-propionate], the IC50 on Trypsin (in vitro) was found to be 490 µM; at Human Cl Esterase (in vitro), 56 µM. In addition, the inhibition at 1000 µM is 18.8% at Human Plasmin, 38.4% at Human Plasma Kallikrein and less than 10% at Bovine Thrombin.

As to `CCCCOc1ccc(OC(=O)CCc2ccc(NC(=N)N)cc2)cc1` [compound 71, p-n-butoxyphenyl β-(p-guanidinophenyl)-propionate], the IC50 at Trypsin (in vitro) was determined as 660 µM. Moreover, the inhibition at 1000 µM at Human Plasmin was 20%; at Human Cl Esterase, less than 10%; on Human Plasma Kallikrein it was 1.5%; at Bovine Thrombin it was less than 10%.

In the case of `CC(Cc1cccc(N)c1)C(=O)Oc1ccc(Cl)cc1` (stereo not drawn) [compound 5, p-chlorophenyl α-methyl-β-(m-aminophenyl)-propionate], the IC50 at Trypsin (in vitro) was 10 µM. For the same molecule, the inhibition at 1000 µM at Human Plasmin, at Human Cl Esterase, at Human Plasma Kallikrein and at Bovine Thrombin was less than 10% each time.

Turning to `CC(Cc1cccc(NC(=N)N)c1)C(=O)Oc1ccccc1.O=C(O)O` (stereo not drawn) [Compound No. 46, Phenyl α-methyl-β-(m-guanidinophenyl)-propionate carbonate], at Trypsin (in vitro), the “inhibitory action on trypsin” value is reported as “no inhibitory action”. Besides, the inhibition at 1000 µM at Trypsin was 12.2%. Moreover, at Human Plasmin, the “inhibitory action on plasmin” value was “no inhibitory action” and the inhibition at 1000 µM was less than 10%. In addition, on Human Cl Esterase (in vitro), the IC50 was 310 µM. Further, on Human Plasma Kallikrein, the “inhibitory action on kallikrein” value is “no inhibitory action” and the inhibition at 1000 µM stood at 12.9%. Besides, at Bovine Thrombin, the “inhibitory action on thrombin” value is given as “no inhibitory action” and the inhibition at 1000 µM was less than 10%.

With `CC(Cc1cccc(NC(=N)N)c1)C(=O)Oc1ccc(Cl)cc1` (stereo not drawn) [Compound No. 44, p-Chlorophenyl α-methyl-β-(m-guanidinophenyl)-propionate carbonate], the IC50 on Human Cl Esterase (in vitro) is 250 µM.

Consider `CC(Cc1ccc(N)cc1)C(=O)Oc1ccc(Cl)cc1` (stereo not drawn) [Compound No. 2, p-Chlorophenyl α-methyl-β-(p-aminophenyl)-propionate hydrochloride], for which the IC50 at Trypsin (in vitro) was 330 µM.
